Reference: article PMC4340794, “Pharmacokinetic Study of 14-(3-Methylbenzyl)matrine and 14-(4-Methylbenzyl)matrine in Rat Plasma Using Liquid Chromatography-Tandem Mass Spectrometry” (PLoS ONE, 2015)

Columns and labels:
[1] = PK study using rats, oral administration, plasma levels by HPLC-MS/MS; format: in vivo, Sprague–Dawley rats; details: oral (gavage) 25 mg/kg, mean ± SD; for Tmax / AUC(0-t) / Cmax / half-life / k el / MRT last: Sprague-Dawley; for Tmax / AUC(0-t): rat, plasma, po, 25 mg/kg; for Cmax / half-life / k el / MRT last / CL / V: rat plasma; for k el: read-out: Ke (converted); for MRT last: read-out: MRT0−t (converted)
Description: HPLC analysis was performed using the Dionex UltiMate 3000 HPLC equipped with a binary pump, an on-line degasser, an auto-sampler and a column temperature controller. The chromatographic separations were performed using a Hypersil GOLD C18 column (100 mm × 2.1 mm, 1.9 μm particle size) protected by a C18 guard column (10 mm × 2.1 mm, 5 μm) at 40°C. The mobile phase consisted of acetonitrile:0.1% formic acid (65:35, v/v). The flow rate was set at 0.2 ml/min. Aliquots of 2 μl were injected into the HPLC system for analysis.
MS analysis was performed using a Thermo Scientific TSQ Quantum Access MAX triple-stage quadrupole mass spectrometer equipped with an electrospray ionization (ESI) source in the positive-ionization mode. The typical ion source parameters were as follows: spray voltage: 3500 V; sheath gas pressure (N2): 20 units; auxiliary gas pressure (N2): 5 units; ion transfer tube temperature: 350°C; collision gas (Ar): 1.5 mTorr; Q1/Q3 peak resolution: 0.7 Da; and scan width: 0.002 Da. The samples were analyzed via selective-reaction monitoring (SRM) of the ion pairs at m/z 343 → 148 for 3MBM, m/z 343 → 148 for 4MBM, or m/z 166 → 133 for the IS. The scan dwell time was set at 0.1 s for every channel. All data collected in the centroid mode were acquired and processed using Xcalibur 2.2 software (Thermo Fisher Scientific, Inc., USA).
Each plasma sample (100 μl) was mixed with 20 μl of the working IS solution in a 1.5-ml labeled microcentrifuge tube and was vortexed for 5 s. Then, 1000 μl of isopropanol:ethyl acetate (v/v, 25:75) was added, and each sample was vortexed for 1 min. Each tube was subsequently centrifuged at 12,000 × g for 10 min. The organic layer was transferred to another tube and evaporated to dryness at ambient temperature under a gentle stream of nitrogen. The residue was reconstituted in 100 μl of the mobile phase, and 2 μl of each sample was injected into the HPLC–MS/MS system for analysis.
Aqueous solutions of 3MBM and 4MBM were separately administered to 12 rats via gavage at 25 mg/kg (2.5 mg/ml aqueous solutions), which was equivalent to the dose administered to mice in our previous study. Serial blood samples (0.5 ml) were obtained at 0, 15, 30, 45, 60, 90, 120, 150, 240, 600, 960, and 1440 min after oral administration. All samples were placed in heparinized tubes. After centrifugation at 12,000 rpm and 4°C for 10 min, the plasma was collected and frozen at −20°C until analysis. The PK parameters were estimated according to a non-compartmental model using the TopFit 2.0 software package (Thomae, Germany). The elimination half-life (t1/2) was 0.693/ke, where ke, the elimination rate constant, was calculated by fitting the mean data at four terminal points of the plasma concentration profile to a log-linear regression equation using the least-squares method. The maximum drug plasma concentration (Cmax) and time to Cmax (Tmax) were directly determined from the observed data. The area under the plasma concentration–time curve from zero to the time of the final measurable sample (AUC0−t) was calculated using the linear-trapezoidal rule.

hepatoma = test system: hepatoma; parameters: method as in earlier work; details: cited from earlier work; for tumor inhibition rate: previous pharmacological experiment
[2] = Stability of analytes in rat plasma samples (post-preparative, freeze–thaw, long-term cold storage); format: in vitro ADME; details: for Stability III R.E. / Stability III Concentration / Stability II R.E. / Stability II Concentration: plasma; for Stability III R.E. / Stability III Concentration: 60 days at -20° C; for Stability III Concentration / Stability II Concentration / Stability I Concentration: n = 6, mean ± SD; for Stability II R.E. / Stability II Concentration: three freeze-thaw cycles; for Stability I R.E. / Stability I Concentration: processed samples, auto-sampler 24 h
Description: Selectivity was assessed by comparing the chromatograms of six different batches of blank rat plasma to the corresponding spiked rat plasma. Linearity was assessed via weighted (1/x^2) analysis of the six different calibration curves. Intra- and inter-day precision (the relative standard deviation, RSD) and accuracy (the relative error, RE) were determined by analyzing the low-, intermediate-, and high-concentration QC samples (n = 6) on three different days. The matrix effect was investigated by comparing the peak areas of the analytes in the post-extraction spiked blank plasma samples at low and high analyte concentrations to the corresponding standard solutions. The extraction yield was determined by comparing the mean peak areas of the six extracted samples at low, intermediate, and high QC concentrations to the mean peak areas of the spike-after-extraction samples. Stability was assessed by analyzing the replicates (n = 6) of the low, intermediate and high QC samples during the sample storage and processing procedures. Freeze–thaw stability was determined after three freeze–thaw cycles. Post-preparation stability was estimated by analyzing the QC samples after 24 h at 4°C. Six aliquots of the QC samples were stored at −20°C for 60 days to determine their long-term stability.

Structure (SMILES)	Tmax [1]	AUC(0-t) ([1]; first AUC0-t line of Table 3)	AUC(0-t) ([1]; second AUC0-t line of Table 3)	Cmax [1]	half-life [1]	k el [1]	MRT last [1]	CL [1]	V [1]	tumor inhibition rate (hepatoma)	Stability III R.E. ([2]; spike 5 ng/ml)	Stability III Concentration ([2]; spike 5 ng/ml)	Stability II Concentration ([2]; spike 5 ng/ml)	Stability I R.E. ([2]; spike 5 ng/ml)	Stability I Concentration ([2]; spike 5 ng/ml)	Stability III R.E. ([2]; spike 800 ng/ml)	Stability III Concentration ([2]; spike 800 ng/ml)	Stability II R.E. ([2]; spike 800 ng/ml)	Stability II Concentration ([2]; spike 800 ng/ml)	Stability I R.E. ([2]; spike 800 ng/ml)	other results
Cc1cccc(CC2CCC3C4CCCN5CCCC(CN3C2=O)C45)c1 (stereo not drawn) [3MBM, 14-(3-methylbenzyl)matrine]	1.47 h	7210 ng·h/mL	7480 ng·h/mL	1050 ± 233 ng/mL	4.97 ± 0.583 h	3.92e-05 s⁻¹	7.4 h	59 ± 13 mL/min	25119 ± 5779 mL	61.83%	-3.80%	4.81 ± 0.42 ng/mL	5.15 ± 0.35 ng/mL	-1.02%	4.94 ± 0.46 ng/mL	1.22%	809.8 ± 30.9 ng/mL	-1.82%	785.4 ± 46.8 ng/mL	-1.03%	anti-hepatoma activity in vivo (hepatoma; compared with cyclophosphamide): the same as those of the reference substances of cyclophosphamide; Stability II R.E. ([2]; spike 5 ng/ml): 2.87%; Stability I Concentration ([2]; spike 800 ng/ml): 791.7 ± 13.6 ng/mL; Stability III R.E. ([2]; spike 1600 ng/ml): 3.78%; Stability III Concentration ([2]; spike 1600 ng/ml): 1660 ± 63.9 ng/mL; Stability II R.E. ([2]; spike 1600 ng/ml): 2.46%; Stability II Concentration ([2]; spike 1600 ng/ml): 1639 ± 98.5 ng/mL; Stability I R.E. ([2]; spike 1600 ng/ml): -0.40%; Stability I Concentration ([2]; spike 1600 ng/ml): 1593 ± 39.9 ng/mL
Cc1ccc(CC2CCC3C4CCCN5CCCC(CN3C2=O)C45)cc1 (stereo not drawn) [4MBM, 14-(4-methylbenzyl)matrine]	~1.58 h	7680 ng·h/mL	7920 ng·h/mL	992 ± 275 ng/mL	4.92 ± 0.367 h	3.94e-05 s⁻¹	7.67 h	59 ± 21 mL/min	24361 ± 6921 mL	51.15%	2.60%	5.13 ± 0.37 ng/mL	4.98 ± 0.23 ng/mL	3.20%	5.16 ± 0.29 ng/mL	-1.58%	787.4 ± 24.1 ng/mL	-1.30%	789.6 ± 67.9 ng/mL	3.11%	Stability I Concentration ([2]; spike 800 ng/ml): 824.9 ± 37.2 ng/mL; Stability III R.E. ([2]; spike 1600 ng/ml): 2.23%; Stability III Concentration ([2]; spike 1600 ng/ml): 1636 ± 36.6 ng/mL; Stability II R.E. ([2]; spike 1600 ng/ml): -1.04%; Stability II Concentration ([2]; spike 1600 ng/ml): 1583 ± 99.2 ng/mL; Stability I R.E. ([2]; spike 1600 ng/ml): -1.42%; Stability I Concentration ([2]; spike 1600 ng/ml): 1577 ± 60.7 ng/mL
O=C1CCC[C@@H]2[C@H]3CCCN4CCC[C@@H](CN12)[C@@H]34 [MT, Matrine]										39.69%											
